Laboratory results: patent publication US20250144020A1, “ULTRA-LONG FLOATING HYDROGEL RAFT FOR PROLONGED GASTRIC RETENTION AND APPLICATIONS REQUIRING BUOYANCY WITH CONTROLLED-RELEASE” (Nanyang Technological University, priority 2022, published 2025)
Where a name gives a salt, the structure may show the parent alone.

Legend:
[1] = In vitro release of MT in FaSGF with model fitting; type: physicochemical; conditions: 37° C., 150 rpm
Experimental: Receptacle cap type rafts were used for the release studies as the receptacle allows the loading of the FD, MP, and FM. The receptacle cap assembly also ensures that the system can be adopted for other drugs easily. This design was used to prevent the interaction of drugs with water in the hydrogel. 100 mg of free drug MT was weighed in triplicates and added to the receptacle of the raft before closing the lid to complete the assembly. Similarly, 20 mg of the MPs (prepared in Example 7) or one FM (prepared in Example 8) was weighed in replicates and added to the receptacle of the raft and closed with cap to obtain the raft containing MT in different forms. Drug forms that were not encased in the raft served as controls.
Required amounts of FD, MP, or FM were added to the receptacle of the raft, and the cap was used to close the structure to obtain FD encased in raft (FD-R), MP encased in raft (MP-R), and FM encased in raft (FM-R). This raft assembly was then tested under simulated gastric conditions using FaSGF in a shaking incubator (150 rpm) at 37° C. All experiments were carried out in triplicates. […] The collected samples were analyzed for the drugs using HPLC. For MT, acetonitrile:PBS (60:40) (PBS adjusted to pH 4.7) was used as the mobile phase at a flow rate of 0.8 ml/min and detected at 244 nm. […]

[2] = cited from earlier work
[3] = In vitro release of Ris in FaSGF with model fitting; type: physicochemical; conditions: not encased in raft
Experimental: This raft assembly was then tested under simulated gastric conditions using FaSGF in a shaking incubator (150 rpm) at 37° C. All experiments were carried out in triplicates. At specified time points, the release media were collected and replaced with an equal volume of fresh FaSGF. The collected samples were analyzed for the drugs using HPLC. […] Each drug form, without the raft, served as a control. To elucidate the mechanism of drug release, the release data were fitted to mathematical models.
Four different forms of the drug were used: 1. free drug; 2. commercial tablet; 3. drug encapsulated MPs; and 4. drug encapsulated FMes. […] Each drug form, without the raft, served as a control.
Receptacle cap type rafts were used for the release studies as the receptacle allows the loading of the FD, MP, and FM. […] Drug forms that were not encased in the raft served as controls.

SMILES	time of MT release (sustained over / dissolved completely in), in words [1]	water solubility (in words) [2]	time to complete dissolution, uncased [3] [h]
COCCc1ccc(OCC(O)CNC(C)C)cc1 (stereo not shown) [MT, metoprolol tartrate]	one hour	water-soluble	
Cc1nc2n(c(=O)c1CCN1CCC(c3noc4cc(F)ccc34)CC1)CCCC2 [Ris, Risperidone]		insoluble in water	1
